# Experimental data reported in article PMC5011342, “A high throughput drug screening assay to identify compounds that promote oligodendrocyte differentiation using acutely dissociated and purified oligodendrocyte precursor cells” (BMC Research Notes, 2016).
# Like-named read-outs stand apart in the source and are kept apart here.
# What was measured:
# [1] = system: acutely dissociated and purified rat OPCs; assay: Acute OL differentiation assay (MBP expression/cell, immunofluorescent image quantification); type: cell-based; conditions: for activation at 2 µM / activation at 10 µM / activation at 0.08 µM / activation at 0.4 µM: sheet "All OLga data"
# Summary of the method: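 Oligodendrocyte precursor cells were enriched from P6-P7 Sprague–Dawley rat brains by immunopanning (RAN-2 and GalC depletion, O4 selection), plated at 5000 cells/well in serum-free, mitogen-free differentiation media on PDL/laminin 96-well view plates, centrifuged at 200×g, and pre-incubated 1–2 h before test compounds were added in quadruplicate. On DIV4, cells were fixed, stained for MBP and DAPI, imaged automatically, and MBP expression per cell was quantified.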
# [2] = system: expanded OPCs; assay: cells; conditions: for viability at 0.1 µM / viability at 1 µM / viability at 10 µM: Rattus norvegicus, 72 h; for 0.1 µM (% DMSO) / 1 µM (% DMSO) / 10 µM (% DMSO): alamarBlue viability of expanded OPCs, relative to DMSO control; for 0.1 µM (% DMSO): compound at 0.1 µM; for 1 µM (% DMSO): compound at 1 µM; for 10 µM (% DMSO): compound at 10 µM
# Summary of the method: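 Expanded OPCs seeded at 10,000 cells/well in differentiation media, then exposed to NCC library compounds at 10, 1 and 0.1 µM (quadruplicate, 0.1% DMSO) for three days. Viability read as alamarBlue fluorescence (560/590 nm) after 4 h at 37 °C; tunicamycin 5 ng/ml served as toxicity control.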
# [3] = Rattus norvegicus, 2 uM test compound, relative to quetiapine, read-out: OL differentiation, 2 uM (% Quet)
# [4] = Rattus norvegicus, 10 uM test compound, relative to quetiapine, read-out: OL differentiation, 10 uM (% Quet)
# [5] = read-out: 0.1 µM (% DMSO), alamarBlue viability of expanded OPCs, compound at 0.1 µM, sheet All Tox data
# [6] = read-out: 1 µM (% DMSO), alamarBlue viability of expanded OPCs, compound at 1 µM, sheet All Tox data
# [7] = read-out: 10 µM (% DMSO), alamarBlue viability of expanded OPCs, compound at 10 µM, sheet All Tox data
# [8] = Rattus norvegicus, 0.08 uM test compound, relative to quetiapine, read-out: OL differentiation, 0.08 uM (% Quet)
# [9] = Rattus norvegicus, 0.4 uM test compound, relative to quetiapine, read-out: OL differentiation, 0.4 uM (% Quet)
# [10] = read-out: 0.1 µM (% DMSO), alamarBlue viability, NCC library compound at 0.1 µM, sheet "All Tox data"
# [11] = read-out: 1 µM (% DMSO), alamarBlue viability, NCC library compound at 1 µM, sheet "All Tox data"
# [12] = read-out: 10 µM (% DMSO), alamarBlue viability, NCC library compound at 10 µM, sheet "All Tox data"
# [13] = Rattus norvegicus, test compound at 2 uM, NCC library screen, relative to quetiapine, read-out: 2 uM (% Quet)
# [14] = Rattus norvegicus, test compound at 10 uM, NCC library screen, relative to quetiapine, read-out: 10 uM (% Quet)
# [15] = Rattus norvegicus, test compound at 2 uM, MBP expression relative to quetiapine, NCC library screen, read-out: 2 uM (% Quet)
# [16] = Rattus norvegicus, test compound at 10 uM, MBP expression relative to quetiapine, NCC library screen, read-out: 10 uM (% Quet)
# [17] = Rattus norvegicus, test compound at 0.4 uM, NCC library screen, relative to quetiapine, read-out: 0.4 uM (% Quet)
Structure (SMILES),"activation at 2 µM [1, 3] [%]","viability at 0.1 µM [2, 5] [%]","viability at 1 µM [2, 6] [%]","viability at 10 µM [2, 7] [%]","viability at 0.1 µM [2, 10] [%]","viability at 1 µM [2, 11] [%]","viability at 10 µM [2, 12] [%]","activation at 2 µM [1, 13] [%]","activation at 10 µM [1, 14] [%]",further results
O=c1[nH]c(=O)n(C2CCCO2)cc1F (centres unmarked) [Tegafur],-23.9,88.4,92.6,99.3,–,–,–,–,–,"activation at 10 µM [1, 4]: -28%"
[H]/N=C(/NCCCCC)N/N=C/c1c[nH]c2ccc(OC)cc12 [Tegaserod],–,–,–,–,88.5,33.1,11.5,–,–,"activation at 0.08 µM [1, 8]: -15.2%; activation at 0.4 µM [1, 9]: -63.1%"
CC[C@H]1OC(=O)[C@H](C)C(=O)[C@H](C)[C@@H](O[C@@H]2O[C@H](C)C[C@H](N(C)C)[C@H]2O)[C@](C)(OC)C[C@@H](C)C(=O)[C@H](C)[C@H]2N(CCCCn3cnc(-c4cccnc4)c3)C(=O)O[C@]12C [Telithromycin],–,–,–,–,98.4,105,94,17.7,10.4,–
CCCc1nc2c(C)cc(-c3nc4ccccc4n3C)cc2n1Cc1ccc(-c2ccccc2C(=O)O)cc1 [Telmisartan],–,–,–,–,95.6,82.3,53.3,-6.1,-61.8,–
Cn1nnc2c(C(N)=O)ncn2c1=O [Temozolomide],-10.2,105,94.7,100,–,–,–,–,–,"activation at 10 µM [1, 4]: -8.5%"
COc1cc2nc(N3CCN(C(=O)C4CCCO4)CC3)nc(N)c2cc1OC (centres unmarked) [Terazosin],-2.4,81.1,80.8,78.7,–,–,–,–,–,"activation at 10 µM [1, 4]: 8.7%; activation at 2 µM [1, 15]: -10.8%; activation at 10 µM [1, 16]: -37.2%; 0.1 µM (% DMSO) [2]: 93.3 % DMSO; 1 µM (% DMSO) [2]: 94.6 % DMSO; 10 µM (% DMSO) [2]: 74.1 % DMSO"
CN(C/C=C/C#CC(C)(C)C)Cc1cccc2ccccc12 [Terbinafine],-91.1,–,–,–,90.5,92.2,11,–,–,"activation at 0.4 µM [1, 9]: -31.1%"
CC(C)(C)NCC(O)c1cc(O)cc(O)c1 (centres unmarked) [Terbutaline],–,–,–,–,–,–,–,–,–,"activation at 2 µM [1, 15]: 8.9%; activation at 10 µM [1, 16]: 12.1%; 0.1 µM (% DMSO) [2]: 91.9 % DMSO; 1 µM (% DMSO) [2]: 95.2 % DMSO; 10 µM (% DMSO) [2]: 89.9 % DMSO"
O=C1CCC(N2C(=O)c3ccccc3C2=O)C(=O)N1 (centres unmarked) [Thalidomide],–,–,–,–,110,92.4,99.3,-9.1,-26.7,–
Cn1c(=O)c2[nH]cnc2n(C)c1=O [Theophylline],–,–,–,–,–,–,–,-12,6.9,0.1 µM (% DMSO) [2]: 91.7 % DMSO; 1 µM (% DMSO) [2]: 95.8 % DMSO; 10 µM (% DMSO) [2]: 88.9 % DMSO
c1ccc2[nH]c(-c3cscn3)nc2c1 [Thiabendazole],–,–,–,–,98,97.1,109,14.9,36.7,–
CSc1ccc2c(c1)N(CCC1CCCCN1C)c1ccccc1S2 (centres unmarked) [Thioridazine],–,–,–,–,53.8,24.4,9.4,–,–,"activation at 0.08 µM ([1]; Rattus norvegicus, test compound at 0.08 uM, NCC library screen, relative to quetiapine, read-out: 0.08 uM (% Quet)): -4.7%; activation at 0.4 µM [1, 17]: -158%"
CN1CCN(CC/C=C2/c3ccccc3Sc3ccc(S(=O)(=O)N(C)C)cc32)CC1 [Thiothixene],–,–,–,–,–,–,–,–,–,"activation at 0.08 µM ([1]; Rattus norvegicus, test compound at 0.08 uM, MBP expression relative to quetiapine, NCC library screen, read-out: 0.08 uM (% Quet)): 45.9%; activation at 0.4 µM ([1]; Rattus norvegicus, test compound at 0.4 uM, MBP expression relative to quetiapine, NCC library screen, read-out: 0.4 uM (% Quet)): 24%; 0.1 µM (% DMSO) [2]: 81.2 % DMSO; 1 µM (% DMSO) [2]: 49.9 % DMSO; 10 µM (% DMSO) [2]: 16.9 % DMSO"
Cc1ccsc1C(=CCCN1CCC[C@@H](C(=O)O)C1)c1sccc1C [Tiagabine],-1.8,99.9,89.2,92.7,–,–,–,–,–,"activation at 10 µM [1, 4]: 8.7%"
C#C[C@]1(O)CC[C@H]2[C@@H]3[C@H](C)CC4=C(CCC(=O)C4)[C@H]3CC[C@@]21C [Tibolone],–,–,–,–,84.8,85.4,77.4,6.5,-6.7,–
CC(C)(C)NC[C@H](O)COc1nsnc1N1CCOCC1 [Timolol],–,–,–,–,99.5,89.9,92.8,-5.6,-24.3,–
CCS(=O)(=O)CCn1c([N+](=O)[O-])cnc1C [Tinidazole],–,–,–,–,91.7,95.3,97.1,-10.8,10.4,–
Clc1ccc2nsnc2c1NC1=NCCN1 [Tizanidine],–,–,–,–,–,–,–,–,–,"activation at 2 µM [1, 15]: 13.7%; activation at 10 µM [1, 16]: -4.2%; 0.1 µM (% DMSO) [2]: 92.8 % DMSO; 1 µM (% DMSO) [2]: 97.3 % DMSO; 10 µM (% DMSO) [2]: 87.9 % DMSO"
Cc1cccc(C)c1NC(=O)C(C)N (centres unmarked) [Tocainide],1.2,94.9,96.2,98,–,–,–,–,–,"activation at 10 µM [1, 4]: -23.2%"
Cc1ccc(S(=O)(=O)NC(=O)NN2CCCCCC2)cc1 [Tolazamide],–,–,–,–,–,–,–,-14.2,-2,0.1 µM (% DMSO) [2]: 100.3 % DMSO; 1 µM (% DMSO) [2]: 95.8 % DMSO; 10 µM (% DMSO) [2]: 99.9 % DMSO
c1ccc(CC2=NCCN2)cc1 [Tolazoline],–,–,–,–,–,–,–,–,–,"activation at 2 µM [1, 15]: -2.4%; activation at 10 µM [1, 16]: -19.3%; 0.1 µM (% DMSO) [2]: 90.4 % DMSO; 1 µM (% DMSO) [2]: 94.2 % DMSO; 10 µM (% DMSO) [2]: 86.6 % DMSO"
CCCCNC(=O)NS(=O)(=O)c1ccc(C)cc1 [Tolbutamide],–,–,–,–,105,107,117,-1.3,20.2,–
Cc1ccc(O)c([C@H](CCN(C(C)C)C(C)C)c2ccccc2)c1 [Tolterodine],-0.9,88.4,87.8,46.5,–,–,–,–,–,"activation at 0.4 µM [1, 9]: -6.8%"
CC1(C)O[C@@H]2[C@@H](CO[C@@]3(COS(N)(=O)=O)OC(C)(C)O[C@@H]23)O1 [Topiramate],8.5,94,93.5,86.5,–,–,–,–,–,"activation at 10 µM [1, 4]: 0.05%"
CC[C@@]1(O)C(=O)OCc2c1cc1n(c2=O)Cc2cc3c(CN(C)C)c(O)ccc3nc2-1 [Topotecan],–,72,49.7,12.3,–,–,–,–,–,"activation at 0.08 µM [1, 8]: -46.4%; activation at 0.4 µM [1, 9]: -124%"
"CN(C)CCOc1ccc(/C(=C(/CCCl)c2ccccc2)c2ccccc2)cc1 [Toremifene, reference compound]",–,–,–,–,174,57.8,9.9,-169,–,"activation at 0.4 µM [1, 17]: 74.9%; EC50 ([1]; Rattus norvegicus, average EC50 for induction of OL differentiation from independent biological replicates, eight concentrations): 100 nM; hit in OL differentiation assay, MRF-TMC ([1]; ● = confirmed hit in this paper's assay): ●"
Cc1cccc(Nc2ccncc2S(=O)(=O)NC(=O)NC(C)C)c1 [Torsemide],31.2,90.5,88.3,93.4,–,–,–,–,–,"activation at 10 µM [1, 4]: -6.1%"
NC1CCN(c2nc3c(cc2F)c(=O)c(C(=O)O)cn3-c2ccc(F)cc2F)C1 (centres unmarked) [Tosufloxacin],-17.9,95.4,104,92.2,–,–,–,–,–,"activation at 10 µM [1, 4]: -6.5%"
COc1cccc(C2(O)CCCCC2CN(C)C)c1 (centres unmarked) [Tramadol],–,–,–,–,100,107,96.7,-1.7,-9.7,–
